What was measured:
[1] = target: T1, hMAO-A (Homo sapiens, UniProt P21397); experiment: hMAO-A inhibition, kynuramine substrate; format: biochemical
T1 construct: purchased Sigma Aldrich; host or cells: insect cells (BTI-TN-5B1-4), baculovirus
T1 sequence (P21397 1-527): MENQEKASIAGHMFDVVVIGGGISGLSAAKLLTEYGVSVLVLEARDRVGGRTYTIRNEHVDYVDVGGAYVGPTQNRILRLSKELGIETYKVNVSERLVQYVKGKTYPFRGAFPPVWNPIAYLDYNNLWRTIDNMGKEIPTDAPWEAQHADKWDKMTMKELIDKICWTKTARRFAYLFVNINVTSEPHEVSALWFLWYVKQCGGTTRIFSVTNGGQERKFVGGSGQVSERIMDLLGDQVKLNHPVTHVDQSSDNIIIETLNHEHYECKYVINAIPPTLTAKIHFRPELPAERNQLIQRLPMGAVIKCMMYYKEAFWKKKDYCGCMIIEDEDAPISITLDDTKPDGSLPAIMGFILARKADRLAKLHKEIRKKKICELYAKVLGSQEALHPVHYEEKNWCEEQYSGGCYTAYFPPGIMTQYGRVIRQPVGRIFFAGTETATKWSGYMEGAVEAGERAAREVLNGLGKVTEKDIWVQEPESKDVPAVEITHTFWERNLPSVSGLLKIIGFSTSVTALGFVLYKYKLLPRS
Description: The inhibitory activity of lipophilic TPP^+ cations on hMAO-A and hMAO-B was studied using an experimental protocol described elsewhere [29, 40]
Evaluation of human monoamine oxidase (hMAO) inhibitory activity The human monoamine oxidase (hMAO) inhibitory outline was assessed in microsomal MAO isoforms prepared from insect cells (BTI-TN-5B1-4) infected with recombinant baculovirus containing cDNA inserts for hMAO-A or hMAO-B an d by measuring the enzymatic conversion rates of kynuramine into 4-hydroxyquinoline. The appropriate amounts of hMAO-A and hMAO-B were adjusted to obtain, in our experimental conditions, the same maximum
All assays were performed in sodium phosphate buffer solution 50 mM pH 7.4.
The compounds under study and reference inhibitors were pre-incubated at 37 °C for 10
concentration: 2×Km) in 96-well microplates (BRANDplates, pureGradeTM, BRAND GMBH, Wertheim, Germany). Then, the reaction was started with the addition of hMAO-A or hMAO-B.
Initial velocities were determined spectrophotometrically in a microplate reader (BioTek Synergy HT from BioTek Instruments, Winooski, VT, USA) at 37 °C by measuring the formation of 4-
The initial velocities, obtained from the linear phase of product formation, were normalized and plotted against the respective inhibitor concentration. IC50 values were obtained from dose-response curves and were expressed as mean ± standard deviation. IC50 values were determined from at least three independent experiments, each performed in triplicate.

[2] = tested on: differentiated SH-SY5Y cells; experiment: Neutral red (NR) uptake assay (cytotoxicity); format: cell-based, human; conditions: 24 h; for effect on NR uptake: increasing concentrations up to 100 µM
Description: Controls were treated with culture media containing 0.1% DMSO. Cell viability was estimated using two different methods: resazurin reduction assay and NR uptake assay.
To avoid phenotypic changes, the cells used for all experiments were taken between 19th and 28th passages. Cells were differentiated as described previously by Fernandes et al. [6]. Briefly, SH-SY5Y cells were seeded onto 96-well plates at a density of 25,000 cells/cm2 in cell culture medium with trans-retinoic acid (RA) (final concentration of 10 µM) and incubated for 3 days at
The cell culture medium was then removed and replaced with medium supplemented with 12-O-tetradecanoylphorbol-13-acetate (TPA) (final concentration 80 nM), and cells were incubated for 3 days. Stock solutions of RA (10 mM) and TPA (80 µM) were prepared in DMSO.
The neutral red (NR) uptake assay is based on the ability of viable cells to incorporate the supravital dye NR and retain it inside the lysosomes [11]. NR uptake assay was performed as previously described by Fernandes et al. [12] Briefly, after the 24 h incubation periods with the test compounds, the cell culture medium was removed and NR solution (50 mg/mL) in fresh cell culture medium was added. Differentiated SH-SY5Y cells and Caco-2 cells were incubated for 2
culture medium was removed and replaced by ethanol absolute/distilled water (1:1) with 5 % acetic acid to liberate the dye from the viable cells. The absorbance was measured at 540 nm in a
multiwell microplate reader (PowerWave XS from BioTek Instruments). The results were
expressed as the percentage of NR uptake relative to that of the control (non-treated) cells [NR
uptake (% of control)] ± standard error mean (SEM) of at least three independent experiments.
Stock solutions of the test compounds (10 µM) were prepared in DMSO and diluted in

[3] = Chromatographic hydrophobicity index by gradient RP-HPLC at pH 2.3
Description: Chromatographic hydrophobicity indexes (CHIs) at pH 2.3 were determined using an experimental protocol described elsewhere [45, 46] and included in the supplementary information.
Evaluation of the chromatographic hydrophobicity index
Chromatographic hydrophobicity indexes (CHIs) values were determined using the
retention times (tR) of samples and a mixture of reference compounds. The data was acquired on
a Shimadzu high-performance liquid chromatograph SPD-M20A system (Shimadzu, Kyoto,
Japan) with a Luna C18 (2) column (Phenomenex, CA, USA) 150×4.6 mm, 5 µm. In CHI
determinations at pH 2.3, mobile phase A was aqueous solution of acetic acid 1 % (v/v) (pH 2.3),
and mobile phase B was acetonitrile. The following gradient program was applied: 1 mL/min
Calibration plots were obtained using a mixture of the following compounds:
paracetamol, theophylline, caffeine, benzimidazole, colchicine, carbamazepine, indole,
propiophenone, butyrophenone, valerophenone, and heptanophenone (Table S1, Figure S2).
hydrophobicity index (CHI) values were calculated as previously described [13, 14].

[4] = target: T2, hAChE (Homo sapiens, UniProt P22303); experiment: Recombinant hAChE inhibition, Ellman's buffer; format: biochemical
T2 construct: made in house
Description: Recombinant hAChE and hBChE were produced and purified as previously described. Test compounds were dissolved in methanol 100 % to prepare stock solutions at 40 mM and subsequently diluted in water to reach the desired concentrations. Recombinant hAChE and hBChE activities were measured in presence of appropriate compound concentrations by spectrophotometry at 412 nm and 25 °C in a 1 mL cuvette containing Ellman’s buffer (0.5 mM DTNB, 0.1% BSA, 0.1 M phosphate, pH 7.4). Measurements were performed at least in duplicate for each tested concentration and final methanol concentrations were kept below 5%.

[5] = Differential pulse voltammetry (DPV); format: physicochemical; conditions: pH 7.4, glassy carbon electrode; for Ep (redox potential): first anodic peak
Description: DPV experiments were performed as described in literature (see supplementary information).
1.4. Electrochemical measurements
Voltammetric studies were carried out using an Autolab PGSTAT 12 potentiostat/galvanostat (Metrohm-Autolab, Netherlands) and one compartment glass electrochemical cell. The voltammetric data were acquired at room temperature using a three-electrode system: a glassy carbon working electrode (GCE) (d = 2 mm), a platinum wire counter electrode and an Ag/AgCl saturated KCl reference electrode (Metrohm, Switzerland). The working electrode was polished manually with an aqueous slurry of alumina powder (BDH Chemicals, VWR, USA) on a microcloth pad and rinsed with water before use. A Crison pH-meter with glass electrode was used for the pH measurements (Crison, Barcelona, Spain).
Differential pulse voltammetry (DPV) experiments were performed as described elsewhere. Test solutions were prepared directly in the electrochemical cell, by diluting ethanolic solutions of the compounds under study (10 mM, 100 μL) in the supporting electrolyte (10 mL) to obtain a final concentration of 100 μM. The scan rate used in differential pulse voltammetry (DPV) was 5 mV.s−1.
All reagents used were of analytical grade or of the highest grade available. Neutral red (NR) solution, resazurin, Dulbecco’s Modified Eagle’s Medium (DMEM) with 4.5 g/L glucose, retinoic acid, 12-O-tetradecanoylphorbol-13-acetate (TPA), 2’,7’-dichorofluorescein diacetate (DCFH-DA), Rhodamine 123 (RHO 123) and zosuquidar (ZOS) were obtained from Sigma Aldrich. Reagents used in cell culture such as heat-inactivated fetal bovine serum (FBS), antibiotic (10,000 U/mL penicillin, 10,000 μg/mL streptomycin), MEM Non-Essential Amino Acids solution (100×) (MEM NEAA), Hanks’ balanced salt solution (HBSS) with or without calcium and magnesium (HBSS(+/+) or HBSS (-/-), respectively) and 0.25% trypsin/1 mM ethylenediamine tetraacetic acid (EDTA) were purchased from Gibco Laboratories (Lenexa, KS, USA). Dimethylsulfoxide (DMSO), absolute ethanol, sodium bicarbonate and acetic acid were obtained from Merck (Darmstadt, Germany). Triton™ X-100 detergent solution was acquired from Thermo Fisher Scientific (Waltham, MA, USA).
Human neuroblastoma SH-SY5Y cells were routinely cultured into […] and maintained in DMEM with 4.5 g/L glucose, supplemented with 10 % heat-inactivated FBS (v/v), 1 % MEM NEAA (v/v) and 1% penicillin/streptomycin (v/v). Cells were maintained at 37 °C in a humidified, 5% CO2−95% air atmosphere, and the cell culture medium was changed every 2-3

T2 sequence (P22303 32-574 limits assumed): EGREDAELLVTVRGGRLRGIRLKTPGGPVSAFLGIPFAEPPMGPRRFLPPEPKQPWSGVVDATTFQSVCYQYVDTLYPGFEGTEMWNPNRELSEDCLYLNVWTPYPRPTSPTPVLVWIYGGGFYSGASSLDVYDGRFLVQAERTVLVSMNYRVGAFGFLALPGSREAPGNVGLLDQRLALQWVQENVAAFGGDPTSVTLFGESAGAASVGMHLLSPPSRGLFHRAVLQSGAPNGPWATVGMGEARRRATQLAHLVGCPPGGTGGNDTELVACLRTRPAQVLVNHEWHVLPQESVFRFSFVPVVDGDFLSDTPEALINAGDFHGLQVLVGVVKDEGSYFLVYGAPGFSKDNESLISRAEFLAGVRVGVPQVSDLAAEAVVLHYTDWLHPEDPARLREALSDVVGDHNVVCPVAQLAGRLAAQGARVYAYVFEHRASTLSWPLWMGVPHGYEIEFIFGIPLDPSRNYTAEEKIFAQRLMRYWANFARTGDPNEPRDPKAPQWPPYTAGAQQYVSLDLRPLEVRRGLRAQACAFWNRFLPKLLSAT

Compound | IC50 [1] [nM] | effect on NR uptake [2] | CHI [3] | IC50 [4] [µM] | Ep (redox potential), second overlapped anodic peak [5] [mV] | Ep (redox potential) [5] [mV] | lysosomal toxicity (NR uptake) ([2]; at concentrations above 12.5 µM)
O=C(/C=C/C=C/c1ccc2c(c1)OCO2)NCCCC[P+](c1ccccc1)(c1ccccc1)c1ccccc1.[Br-] [Compound 2, (4-((2E,4E)-5-(Benzo[d][1,3]dioxol-5-yl)penta-2,4-dienamido)butyl)triphenylphosphonium bromide] | 888 ± 22 | remained constant | 42.8 | 11 ± 1 | 1070 | 942 | –
O=C(/C=C/C=C/c1ccc2c(c1)OCO2)NCCCCCC[P+](c1ccccc1)(c1ccccc1)c1ccccc1.[Br-] [Compound 3, (6-((2E,4E)-5-(Benzo[d][1,3]dioxol-5-yl)penta-2,4-dienamido)hexyl)triphenylphosphonium bromide] | 1230 ± 130 | – | 45.8 | 2 ± 0.2 | 1083 | 931 | significant lysosomal toxicity
O=C(/C=C/C=C/c1ccc(O)c(O)c1)NCCCC[P+](c1ccccc1)(c1ccccc1)c1ccccc1.[Br-] [Compound 4, (4-((2E,4E)-5-(3,4-Dihydroxyphenyl)penta-2,4-dienamido)butyl)triphenylphosphonium bromide] | 5170 ± 540 | remained constant | 34.4 | 22 ± 2 | – | 125 | –
O=C(/C=C/C=C/c1ccc(O)c(O)c1)NCCCCCC[P+](c1ccccc1)(c1ccccc1)c1ccccc1.[Br-] [Compound 5, (6-((2E,4E)-5-(3,4-Dihydroxyphenyl)penta-2,4-dienamido)hexyl)triphenylphosphonium bromide] | 2170 ± 280 | remained constant | 37.2 | 9 ± 0.5 | – | 144 | –

From article PMC7926627, “Fine-Tuning the Biological Profile of Multitarget Mitochondriotropic Antioxidants for Neurodegenerative Diseases” (Antioxidants, 2021)
